US20030211152A1, “Controlled release formulation for treating COPD” (SmithKline Beecham Corporation, priority 1999, published 2003)
Where two headings read alike, the source gives them in different places.

Experiments:
PDE 4 = assay: IC50 ratio: competing with [3H]R-rolipram binding to high affinity form over inhibiting catalytic activity of low affinity form; type: biochemical; settings: 1 nM [3H]R-rolipram binding; 1 uM [3H]-cAMP as substrate
Excerpt: This invention covers controlled release formulations which contain a PDE 4 inhibitor, particularly an inhibitor that is specific for PDE 4. A preferred group of inhibitors are those that have an IC50 ratio (high/low binding) of about 0.1 or greater as further described in co-pending U.S. application Ser. No. 08/456,274 and its published counter-part PCT application serial number published Jan. 5, 1995 as WO95/00139; this application is incorporated herein in full by reference as if fully set forth herein. A preferred standard for PDE 4-specific inhibitors which can be used in this invention is one where the compound has an IC50 ratio of about 0.1 or greater; said ratio being the ratio of the IC50 value for competing with the binding of 1 nM of [^3H]R-rolipram to a form of PDE 4 which binds rolipram with a high affinity over the IC50 value for inhibiting the PDE 4 catalytic activity of a form which binds rolipram with a low affinity using 1 uM[^3H]-cAMP as the substrate.

[1] = Side effects with increasing oral dose and blood levels; type: in vivo; settings: as blood levels increase with increased levels of dosing
Excerpt: While to date no one has been able to identify a compound which is completely without unwanted CNS side effects at all possible dosage levels, at least one compound has been identified that meets the criteria described above, namely cis-4-cyano-4-[3-(cyclopentyloxy)-4-methoxyphenyl]cyclohexane-1-carboxylic acid. […] This is particularly true with COPD. […] The controlled release formulations of this invention allow for administering in a single dosage form several times the quantity that can otherwise be administered of a PDE4 inhibitor and achieve both initial therapeutically effective blood levels and maintain these blood level for an extended period of time. PDE4 inhibitors, particularly PDE4-specific inhibitors are useful in treating other diseases especially in the areas of inflammation, (e.g., asthma, chronic obstructive pulmonary disease, inflammatory bowel disease, rheumatoid arthritis), affects related to tumor necrosis factor and to cognition impairment (e.g., multi-infarct dementia, cognitive dysfunction, or stroke). This invention is useful in treating these diseases as well. These formulations and the method descibed herein can be used for prophylactic treatment as well. Additional other therapeutic or prophylactic agents can be combined with a PDE4 inhibitor in these formulations as well.

[2] = clinical studies / indications; cited from earlier work

Structure (SMILES) | therapeutic ratio (IC50 ratio high/low binding) (PDE 4) | side effects [1] | side effects [2]
COc1ccc([C@]2(C#N)CC[C@@H](C(=O)O)CC2)cc1OC1CCCC1 [cis-4-cyano-4-[3-(cyclopentyloxy)-4-methoxyphenyl]cyclohexane-1-carboxylic acid] | greater than 0.1 | undesirable side effects such as those attributed to CNS activity begin to be manifested | –
CCCCn1c(=O)c2c(ncn2CC(C)=O)n(CCCC)c1=O [denbufylline] | – | – | pyrosis, nausea and emesis
COc1ccc(C2CNC(=O)C2)cc1OC1CCCC1 (stereo not shown) [rolipram] | – | – | psychotropic activity and produces gastrointestinal effects, e.g., pyrosis, nausea and emesis
